{
  "source": "patent US12098411B2",
  "about": "“Exogenous ketone blend compositions for delivery of ketone bodies” (KetoneAid, Inc., priority 2016, dated 2024)",
  "key": {"[1]": {"settings": "cited from earlier work"}, "[2]": {"assay": "Ketone blood concentration after ingestion of 1,3-butanediol (FIG. 5, FIG. 6)", "assay_type": "in vivo, human", "from_the_text": "FIG. 5 depicts an exemplary ketone blood concentration after ingestion of racemic 1,3-butanediol.\nFIG. 6 depicts a ketone blood concentration after one person ingested (D)-1,3-butanediol, compared to the results of two people ingesting racemic 1,3-butanediol.\nIt should also be noted that only the D enantiomer is active in the body as a source of extracellular fuel that is then transported into the cells. Ketone blood level meters currently on the market only measure the blood level of the D enantiomer. Products containing racemic salts require two to three times the amount of sodium, calcium and potassium for an equal amount of (D)-β-hydroxybutyrate. A reason the potential levels of (D)-β-hydroxybutyrate in the blood is over double compared with an equal amount of the racemic solutions is because the body has to waste energy and uses up some of the (D)-β-hydroxybutyrate to burn off the unnatural (L)-β-hydroxybutyrate.\nFIG. 5 depicts exemplary results from ingestion of 33 ml racemic 1,3-butanediol. […] For example, as shown, 33 ml of the non-racemic (D) form provided an increase in ketones of approximately 3.2 mmol/L whereas the racemic form provided approximately 0.9-1.0 mmol/L increases over pre consumption ketone levels."}, "[3]": {"system": "pyruvate dehydrogenase impairment", "assay": "Relief of fatigue and cognitive impairment in persons suffering with ALS", "assay_type": "in vivo, human", "from_the_text": "Persons suffering with ALS display chronic fatigue and chronic cognitive impairment. The mechanism of impairment has been traced to an impairment with pyruvate dehydrogenase in the mitochondria. Cells of the central nervous system, the heart and skeletal muscles, due to the impairment, lack the critical energy or ATP to function normally. (D)-β-hydroxybutyrate circumvents the pyruvate dehydrogenase impairment and provides for far higher energy and ATP creation in those cells. […] The dosing regimen should be between 5-60 grams 1-3 times per day with the preferred amount to be between 20-40 grams 3 times per day."}},
  "note": "Read-outs that look alike come from different tables or passages of the source.",
  "data": [
    {"compound": "CC(O)CC(=O)[O-].[K+]", "note": "(racemic) [racemic potassium β-hydroxybutyrate, potassium β-hydroxybutyrate]", "values": [
      {"measurement": "blood ketones reachable", "setting": "[1]; consumed at about 100% of potassium's RDA", "result": "approximately 0.5 mmol/L"}
    ]},
    {"compound": "CC(O)CC(=O)[O-].[Na+]", "note": "(racemic) [racemic sodium β-hydroxybutyrate, sodium β-hydroxybutyrate]", "values": [
      {"measurement": "blood ketones reachable", "setting": "[1]; consumed at about 100-200% of the RDA for sodium", "result": "approximately 0.5 mmol/L"}
    ]},
    {"compound": "CC(O)CCO", "note": "(centres unmarked) [(D)-1,3-butanediol]", "values": [
      {"measurement": "amount of ketones (mmol) in the blood relative to racemic 1,3-butanediol", "setting": "[2]; 33 ml each, over a 120 minute period", "result": "over double"},
      {"measurement": "increase in ketones over pre consumption ketone levels", "setting": "[2]; ingestion of 33 ml", "result": "approximately 3.2 mmol/L"}
    ]},
    {"compound": "C[C@@H](O)CC(=O)O", "note": "[(D)-β-hydroxybutyrate]", "values": [
      {"measurement": "time to significant reduction of fatigue and cognitive impairment after ingestion", "setting": "[3]", "result": "≤ 15", "unit": "min"}
    ]}
  ]
}
